According to US12018023B2 (NERVIANO MEDICAL SCIENCES S.R.L., priority 2018, dated 2024):
pIC50: −log10 of the molar value.

Columns and labels:
[1] = biological target: T1, IDH1^R132H homodimer enzyme (Homo sapiens, UniProt O75874, R132H); assay: NADPH depletion assay, IDH1 R132H; type: biochemical
T1 construct: purchased not specified
Method in brief: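 IDH1 R132H enzyme (8 nM as diluted) in Tris-HCl pH 7.6 with 10 mM MgCl2, 0.001% Triton X-100 and 4 mM β-mercaptoethanol is preincubated 15 min at RT with compound. Substrate mix (12 uM NADPH, 3.4 mM α-ketoglutarate) is added for 60 min; remaining NAD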

IDH1^R132C = biological target: T2, IDH1^R132C (Homo sapiens, UniProt O75874, R132C); assay: NADPH depletion assay, IDH1 R132C; type: biochemical
T2 construct: purchased not specified
Method in brief: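 Fluorescence readout (Ex544/Em590) of NADPH left after diaphorase/resazurin addition. Alpha-ketoglutarate 0.14 mM final, enzyme 2 nM final; compound preincubation 15 min, then 60 min reaction, both at room temperature, pH 7.6 Tris buffer.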

IDH2^R172K = biological target: T3, IDH2^R172K (Homo sapiens, UniProt P48735, R172K); assay: NADPH depletion assay, IDH2 R172K; type: biochemical
T3 construct: purchased not specified
T3 sequence (P48735 40-452 R172K): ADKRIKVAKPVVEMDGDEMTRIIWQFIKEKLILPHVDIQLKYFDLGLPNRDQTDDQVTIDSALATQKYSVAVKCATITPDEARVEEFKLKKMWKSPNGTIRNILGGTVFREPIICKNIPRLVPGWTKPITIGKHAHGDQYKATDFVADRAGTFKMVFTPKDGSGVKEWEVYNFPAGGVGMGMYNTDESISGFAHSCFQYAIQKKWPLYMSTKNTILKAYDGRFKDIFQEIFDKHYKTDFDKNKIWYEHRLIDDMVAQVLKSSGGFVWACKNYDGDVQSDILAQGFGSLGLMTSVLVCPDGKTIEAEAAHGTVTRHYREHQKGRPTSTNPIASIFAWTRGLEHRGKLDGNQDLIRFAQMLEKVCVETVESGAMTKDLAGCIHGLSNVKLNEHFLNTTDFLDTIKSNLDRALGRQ
Method in brief: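 This NADPH depletion assay measures NADPH left after conversion of alpha-ketoglutarate (0.55 mM final) by 16 nM IDH2 R172K over 60 min at room temperature, after a 15 min compound preincubation in pH 7.6 Tris buffer. Substrate mix held 12 μM NADPH. Diaphorase/resazurin gave the fluorescence read-out at 544/590 nm.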

IDH1WT enzyme = biological target: T4, IDH1WT enzyme (Homo sapiens, UniProt O75874); assay: Enzymatic assay for IDH1 wild-type (NADPH forming assay); type: biochemical
T4 construct: purchased not specified
Description: IDH1WT enzymatic activity converting isocitric acid to alpha-ketoglutarate is measured using a NADPH forming assay. In the assay the forming cofactor is measured in continuous with the addition of a catalytic excess of diaphorase and resazurin, to generate a fluorescent signal in proportion to the amount of NADPH forming.
Compounds were preincubated with the enzyme, then the reaction was started by the addition of NADP^+, isocitrate, diaphorase and a corresponding substrate, resazurin. Diaphorase reduces resazurin to the highly fluorescent resorufin with the concomitant oxidation of NADPH to NADP. Specifically, 0.2 uL of test compound, previously serially diluted 1 to 3, 10 experimental points from 1 mM in DMSO, was added to 0.016 nM IDH1WT enzyme in 10 μL of Assay Buffer (150 mM NaCl, 50 mM Tris-HCl pH 7.6, 10 mM MgCl2, 0.001% Triton X-100, 4 mM β-mercaptoethanol); the mixture is incubated for 15 minutes at room temperature. The reaction is started with the addition of 10 μL of Substrate Mix (400 μM NADP^+, 40 μM iso-citrate, 5 ugr/mL Diaphorase and 7 μM resazurin in Assay Buffer), the mixture is incubated at room temperature and the reaction is reading on a ViewLux as platereader at Ex544/Em590 in continuous.

U87MG_IDH1R132H = assay: Cellular 2-HG production assay, U87-MG-IDH1 R132H; type: cell-based; conditions: inhibition of 2HG production, 72 hr incubation, LC-MS/MS
Method in brief: (§1)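 Cells in E-MEM/10% FCS (G418 500 μg/mL for the transfected U87-MG line) at 500 per well got compound 24 h after seeding and were incubated 72 h at 37 °C. Medium 2-HG was measured by LC-MS/MS with 2-HG-d3 internal standard; IC50 came from sigmoidal fitting versus controls.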

HT-1080 (IDH1^R132C) = assay: Cellular 2-HG production assay, HT-1080; type: cell-based; conditions: Homo sapiens, HT-1080, 72 h, inhibition of 2HG production, 72 hr incubation, LC-MS/MS; read-out: HT1080 2-HG IC50
Method in brief: as §1

T1 sequence (O75874 whole entry R132H): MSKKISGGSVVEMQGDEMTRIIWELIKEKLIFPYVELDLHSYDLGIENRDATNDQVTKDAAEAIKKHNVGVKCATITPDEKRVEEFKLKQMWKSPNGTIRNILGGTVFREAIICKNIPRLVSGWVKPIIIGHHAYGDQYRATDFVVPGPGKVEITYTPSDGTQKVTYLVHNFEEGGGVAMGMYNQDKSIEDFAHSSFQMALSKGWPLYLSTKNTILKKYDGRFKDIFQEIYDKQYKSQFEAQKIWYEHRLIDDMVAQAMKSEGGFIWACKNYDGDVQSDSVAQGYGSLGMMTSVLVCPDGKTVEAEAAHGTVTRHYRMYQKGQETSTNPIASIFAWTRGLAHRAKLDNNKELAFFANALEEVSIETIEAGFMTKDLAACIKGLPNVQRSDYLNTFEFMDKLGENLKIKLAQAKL
T4 sequence (O75874 whole entry): as the sequence (O75874 whole entry R132H) above, with H132R counted along it
T2 sequence (O75874 whole entry R132C): as the sequence (O75874 whole entry R132H) above, with H132C counted along it

SMILES | pIC50 [1] | pIC50 (IDH1^R132C) | pIC50 (IDH2^R172K) | pIC50 (IDH1WT enzyme) | pIC50 (U87MG_IDH1R132H) | pIC50 (HT-1080 (IDH1^R132C))
C=CC(=O)N1CCN([C@@H](CC2CC2)c2ccc([C@H](C)Nc3ncc4ccc(=O)n(C(C)C)c4n3)cc2)CC1 [cpd 230, 2-{[(1S)-1-{4-[(1S)-1-(4-acryloylpiperazin-1-yl)-2-cyclopropylethyl]phenyl}ethyl]amino}-8-(propan-2-yl) pyrido [2,3-d]pyrimidin-7(8H)-one] | 9.00 | 9.00 | 7.96 | 7.41 | 9.40 | 9.40
C=CC(=O)N1CCN(C(CC2CC2)c2ccc([C@H](C)Nc3ncc4ccc(=O)n(CC)c4n3)cc2)CC1 (stereo partly drawn) [cpd 219, 2-{[(1S)-1-{4-[1-(4-acryloylpiperazin-1-yl)-2-cyclopropylethyl]phenyl}ethyl]amino}-8-ethylpyrido[2,3-d]pyrimidin-7(8H)-one] | 9.00 | 9.00 | 8.22 | 7.28 | 9.40 | 9.40
C=CC(=O)N1CCN(Cc2ccc([C@H](C)Nc3ncc4ccc(=O)n(CC(C)(C)CO)c4n3)cc2)CC1 [cpd 140, 2-{(S)-1-[4-(4-Acryloyl-piperazin-1-ylmethyl)-phenyl]-ethylamino}-8-(3-hydroxy-2,2-dimethyl-propyl)-8H-pyrido [2,3-d]pyrimidin-7-one] | 6.60 | 6.94 | 5.49 | 5.31 | 8.00 | 6.97

Further lines, results first:

pIC50 [1] | pIC50 (IDH1^R132C) | pIC50 (IDH2^R172K) | pIC50 (IDH1WT enzyme) | pIC50 (U87MG_IDH1R132H) | pIC50 (HT-1080 (IDH1^R132C)) | SMILES
8.70 | 8.70 | 7.60 | 7.56 | 9.22 | 9.10 | C=CC(=O)N1CCN([C@H](CC)c2ccc([C@H](C)Nc3ncc4ccc(=O)n(C(C)C)c4n3)cc2)CC1 [cpd 228, 2-{[(1S)-1-{4-[(1R)-1-(4-acryloylpiperazin-1-yl)propyl]phenyl}ethyl]amino}-8-(propan-2-yl)pyrido[2,3-d]pyrimidin-7(8H)-one]
9.00 | 9.00 | 7.82 | 7.28 | 9.30 | 9.52 | C=CC(=O)N1CCN(C(CC2CC2)c2ccc([C@H](C)Nc3ncc4ccc(=O)n(C(C)C)c4n3)cc2)CC1 (stereo partly drawn) [cpd 220, 2-{[(1S)-1-{4-[1-(4-acryloylpiperazin-1-yl)-2-cyclopropylethyl]phenyl}ethyl]amino}-8-(propan-2-yl)pyrido[2,3-d]pyrimidin-7(8H)-one]
7.43 | 7.82 | 5.13 | 5.77 | 6.70 | 7.17 | CC(C)[C@H](C)n1c(=O)ccc2cnc(N[C@@H](C)c3ccc(CN4CCC(F)(F)CC4)c(F)c3)nc21 [cpd 67, 2-{[(1S)-1-{4-[(4,4-difluoropiperidin-1-yl)methyl]-3-fluorophenyl}ethyl]amino}-8-[(2S)-3-methylbutan-2-yl]pyrido[2,3-d]pyrimidin-7(8H)-one]
7.26 | 7.54 | 5.26 | 5.80 | 6.75 | 6.81 | C[C@H](Nc1ncc2ccc(=O)n(CC(C)(C)C)c2n1)c1ccc(CN2CCCC(F)(F)C2)cc1 [cpd 117, 2-{[(1S)-1-{4-[(3,3-difluoropiperidin-1-yl)methyl]phenyl}ethyl]amino}-8-(2,2-dimethylpropyl)pyrido[2,3-d]pyrimidin-7(8H)-one]
6.98 | 7.26 | 5.33 | 5.69 | 6.38 | 6.94 | C[C@H](Nc1ncc2ccc(=O)n(CC(C)(C)C)c2n1)c1ccc(CN2CCC(F)(F)CC2)cc1 [cpd 105, 2-{[(1S)-1-{4-[(4,4-difluoropiperidin-1-yl)methyl]phenyl)ethyl]amino)-8-(2,2-dimethylpropyl)pyrido[2,3-d]pyrimidin-7(8H)-one]
